Assay: Phase I clinical trial: treatment-emergent adverse events (patients, n (%)), dose limiting toxicity, MTD
Assay type: in vivo
[1] = Table 8: Total QD Dosing (N = 25)
[2] = Table 8: Total QDx3d QW (N = 14)

Method: Safety, maximum tolerated dose (MTD), pharmacokinetics (PK) and preliminary antitumor activity were evaluated.
Pharmacodynamic (PD) endpoints were evaluated in surrogate (peripheral blood cells [PBCs], skin) and tumor tissues for the phosphorylation of TORC1-dependent markers (4EBP1/S6), and TORC2-dependent markers (AKT/PRAS40).

CC(C)n1nc(-c2ccc3oc(N)nc3c2)c2c(N)ncnc21 [compound A]
Eye infection (Table 8: Total (N = 60)): 1 (2%)
Fatigue (Table 8: Total (N = 60)): 1 (2%)
Gastritis (Table 8: Total (N = 60)): 1 (2%)
Gravitational oedema (Table 8: Total (N = 60)): 1 (2%)
Headache (Table 8: Total (N = 60)): 1 (2%)
Hyperbilirubinaemia (Table 8: Total (N = 60)): 1 (2%)
Hypertransaminasaemia (Table 8: Total (N = 60)): 1 (2%)
Hypertriglyceridaemia (Table 8: Total (N = 60)): 1 (2%)
Hypocalcaemia (Table 8: Total (N = 60)): 1 (2%)
Hypomagnesaemia (Table 8: Total (N = 60)): 1 (2%)
Hypotension (Table 8: Total (N = 60)): 1 (2%)
Insomnia (Table 8: Total (N = 60)): 1 (2%)
Low fever (Table 8: Total (N = 60)): 1 (2%)
Malaise (Table 8: Total (N = 60)): 1 (2%)
Nausea (Table 8: Total (N = 60)): 1 (2%)
Oral discomfort (Table 8: Total (N = 60)): 1 (2%)
Orthostatic hypotension (Table 8: Total (N = 60)): 1 (2%)
Palmar-plantar erythrodysaesthesia syndrome (Table 8: Total (N = 60)): 1 (2%)
Panniculitis (Table 8: Total (N = 60)): 1 (2%)
Platelet count decreased (Table 8: Total (N = 60)): 1 (2%)
Polyuria (Table 8: Total (N = 60)): 1 (2%)
Pyrexia (Table 8: Total (N = 60)): 1 (2%)
Rash (Table 8: Total (N = 60)): 1 (2%)
Rash macular (Table 8: Total (N = 60)): 1 (2%)
Skin discolouration (Table 8: Total (N = 60)): 1 (2%)
Skin exfoliation (Table 8: Total (N = 60)): 1 (2%)
Urinary tract infection (Table 8: Total (N = 60)): 1 (2%)
Urine tract infection (Table 8: Total (N = 60)): 1 (2%)
Vomiting (Table 8: Total (N = 60)): 1 (2%)
WEAKNESS (Table 8: Total (N = 60)): 1 (2%)
Weight decreased (Table 8: Total (N = 60)): 1 (2%)
Catheter site inflammation [1]: 0 (0%)
Catheter site pain [1]: 0 (0%)
Coagulopathy [1]: 1 (4%)
Confusional state [1]: 1 (4%)
Cough [1]: 1 (4%)
DIARRHEA [1]: 0 (0%)
Dizziness [1]: 1 (4%)
Dyspnoea exertional [1]: 1 (4%)
Eye infection [1]: 1 (4%)
Fatigue [1]: 0 (0%)
Gastritis [1]: 1 (4%)
Gravitational oedema [1]: 1 (4%)
Headache [1]: 0 (0%)
Hyperbilirubinaemia [1]: 0 (0%)
Hypertransaminasaemia [1]: 0 (0%)
Hypertriglyceridaemia [1]: 0 (0%)
Hypocalcaemia [1]: 1 (4%)
Hypomagnesaemia [1]: 0 (0%)
Hypotension [1]: 0 (0%)
Insomnia [1]: 1 (4%)
Low fever [1]: 0 (0%)
Malaise [1]: 0 (0%)
Nausea [1]: 0 (0%)
Oral discomfort [1]: 0 (0%)
Orthostatic hypotension [1]: 1 (4%)
Palmar-plantar erythrodysaesthesia syndrome [1]: 0 (0%)
Panniculitis [1]: 1 (4%)
Platelet count decreased [1]: 0 (0%)
Polyuria [1]: 1 (4%)
Pyrexia [1]: 0 (0%)
Rash [1]: 0 (0%)
Rash macular [1]: 0 (0%)
Skin discolouration [1]: 1 (4%)
Skin exfoliation [1]: 1 (4%)
Urinary tract infection [1]: 0 (0%)
Urine tract infection [1]: 0 (0%)
Vomiting [1]: 0 (0%)
WEAKNESS [1]: 0 (0%)
Weight decreased [1]: 1 (4%)
Catheter site inflammation [2]: 1 (7%)
Catheter site pain [2]: 1 (7%)
Coagulopathy [2]: 0 (0%)
Confusional state [2]: 0 (0%)
Cough [2]: 0 (0%)
DIARRHEA [2]: 0 (0%)
Dizziness [2]: 0 (0%)
Dyspnoea exertional [2]: 0 (0%)
Eye infection [2]: 0 (0%)
Fatigue [2]: 1 (7%)
Gastritis [2]: 0 (0%)
Gravitational oedema [2]: 0 (0%)
Headache [2]: 1 (7%)
Hyperbilirubinaemia [2]: 1 (7%)
Hypertransaminasaemia [2]: 1 (7%)
Hypertriglyceridaemia [2]: 1 (7%)
Hypocalcaemia [2]: 0 (0%)
Hypomagnesaemia [2]: 1 (7%)
Hypotension [2]: 1 (7%)
Insomnia [2]: 0 (0%)
Low fever [2]: 1 (7%)
Malaise [2]: 0 (0%)
Nausea [2]: 0 (0%)
Oral discomfort [2]: 0 (0%)
Orthostatic hypotension [2]: 0 (0%)
Palmar-plantar erythrodysaesthesia syndrome [2]: 1 (7%)
Panniculitis [2]: 0 (0%)
Platelet count decreased [2]: 1 (7%)
Polyuria [2]: 0 (0%)
Pyrexia [2]: 1 (7%)
Rash [2]: 0 (0%)
Rash macular [2]: 1 (7%)
Skin discolouration [2]: 0 (0%)
Skin exfoliation [2]: 0 (0%)
Urinary tract infection [2]: 1 (7%)
Urine tract infection [2]: 0 (0%)
Vomiting [2]: 0 (0%)
WEAKNESS [2]: 0 (0%)

Source: patent US9174994B2, “Enhanced treatment regimens using mTor inhibitors” (INTELLIKINE LLC, priority 2011, dated 2015)
